This note sets out measurements from patent US7312228B2, “Cytotoxic indeno and isoindoloisoquinolones” (Purdue Research Foundation, priority 2003, dated 2007).

Values joined by “and” are separate entries in the source; they are usually repeats but may differ in a detail not shown here. Equal entries are not always repeated. Where two headings read alike, the source gives them in different places.

In data set [1] the test system is MDA-MB-435. The data set is described as follows: NCI screen antiproliferative activity, breast MDA-MB-435. It is filed as cell-based, human. Conditions: concentration corresponding to 50% growth inhibition, read-out: cytotoxicity (GI50) breast MDA-MB-435. As for the experimental part: (§1) Selected indenoisoquinolones described herein were examined for antiproliferative activity against the human cancer cell lines in the National Cancer Institute screen, in which the activity of each compound was evaluated with approximately 55 different cancer cell lines of diverse tumor origins.

Data set [2] addresses T1, Human recombinant top1 (Homo sapiens, UniProt P11387).
T1 construct: made in house
T1 sequence (P11387 1-765): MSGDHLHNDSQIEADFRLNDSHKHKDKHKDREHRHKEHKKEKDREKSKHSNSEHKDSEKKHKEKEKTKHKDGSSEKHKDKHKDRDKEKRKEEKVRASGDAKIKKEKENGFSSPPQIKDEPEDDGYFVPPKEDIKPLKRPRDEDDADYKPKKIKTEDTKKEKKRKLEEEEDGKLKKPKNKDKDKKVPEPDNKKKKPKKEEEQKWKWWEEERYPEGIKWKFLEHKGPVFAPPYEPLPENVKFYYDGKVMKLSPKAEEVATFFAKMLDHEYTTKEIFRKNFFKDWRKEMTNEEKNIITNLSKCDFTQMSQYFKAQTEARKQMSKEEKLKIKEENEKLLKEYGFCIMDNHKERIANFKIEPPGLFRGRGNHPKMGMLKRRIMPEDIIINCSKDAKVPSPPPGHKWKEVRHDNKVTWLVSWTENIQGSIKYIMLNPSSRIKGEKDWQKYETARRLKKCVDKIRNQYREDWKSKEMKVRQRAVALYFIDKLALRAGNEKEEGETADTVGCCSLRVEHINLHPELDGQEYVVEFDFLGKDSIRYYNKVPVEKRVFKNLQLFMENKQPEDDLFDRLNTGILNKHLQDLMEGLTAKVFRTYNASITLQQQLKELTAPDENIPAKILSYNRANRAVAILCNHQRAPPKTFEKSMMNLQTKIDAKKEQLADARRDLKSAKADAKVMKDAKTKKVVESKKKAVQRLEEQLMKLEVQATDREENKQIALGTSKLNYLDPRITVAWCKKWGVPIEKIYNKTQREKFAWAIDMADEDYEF
The data set is described as follows: Top1-mediated DNA cleavage reactions. It is filed as biochemical. Further details: key to Top 1 Cleavage: weak activity (+); activity similar to compound 2 (++); activity greater than compound 2 (+++). Conditions: for Top 1 Cleavage: tested at concentrations ranging up to 10 μM, relative to compound 2. On the procedure:
Human recombinant top1 was purified from Baculovirus as described by Pourquier et al. in J. Biol. Chem. 274:8516-23 (1999), the disclosure of which is incorporated herein by reference. The 161 bp fragment from pBluescript SK(−) phagemid DNA (Stratagene, La Jolla, Calif.) was cleaved with the restriction endonuclease Pvu II and Hind III (New England Biolabs, Beverly, Mass.) in supplied NE buffer 2 (10 μL reactions) for 1 h at 37° C., and separated by electrophoresis in a 1% agarose gel made in 1×TBE buffer. The 161 bp fragment was eluted from the gel slice (centrilutor by Amicon) and concentrated in a centricon 50 centrifugal concentrator (Amicon, Beverly, Mass.). Approximately 200 ng of the fragment was 3′-end labeled at the Hind III site by fill-in reaction with [alpha-^32P]-dGTP and 0.5 mM dATP, dCTP, and dTTP, in React 2 buffer (50 mM Tris-HCl, pH 8.0, […], 50 mM NaCl) with 0.5 units of DNA polymerase I (Klenow fragment). Unincorporated ^32P-dGTP was removed using mini Quick Spin DNA columns (Roche, Indianapolis, Ind.), and the eluate containing the 3′-end-labeled 161 bp fragment was collected. Aliquots (approximately 50,000 dpm/reaction) were incubated with top1 at 22° C. for 30 min in the presence of the tested drug. Reactions were terminated by adding SDS (0.5% final concentration). The samples (10 μL) were mixed with 30 μL of loading buffer (80% formamide, 10 mM sodium hydroxide, 1 mM sodium EDTA, 0.1% xylene cyanol, and 0.1% bromophenol blue, pH 8.0). Aliquots were separated in denaturing gels (16% polyacrylamide, 7 M urea). Gels were dried and visualized by using a Phosphoimager and ImageQuant software (Molecular Dynamics, Sunnyvale, Calif.).

Data set [3] concerns human cancer cell lines. Put plainly: NCI screen mean graph midpoint over approximately 55 cancer cell lines. The format is cell-based. Conditions: for GI50: read-out: MGM (mean graph midpoint for growth inhibition); for cytotoxicity compared with other compounds: human cancer cell cultures. On the procedure: Selected indenoisoquinolones described herein were examined for antiproliferative activity against the human cancer cell lines in the National Cancer Institute screen, in which the activity of each compound was evaluated with approximately 55 different cancer cell lines of diverse tumor origins. […] The relative activities of selected indenoisoquinolines described herein were obtained from the top 1-mediated DNA cleavage assay, and are also shown in Table 1. Compounds 2 and 7 are also included the Table 1.

In data set [4] the test system is SN12C. The data set is described as follows: NCI screen antiproliferative activity, renal SN12C. It is filed as cell-based. Conditions: Homo sapiens, concentration corresponding to 50% growth inhibition, read-out: cytotoxicity (GI50) renal SN12C. On the procedure: as §1
The test system of data set [5] is OVCAR-3. The data set is described as follows: NCI screen antiproliferative activity, ovarian OVCAR-3. It is filed as cell-based. Conditions: Homo sapiens, concentration corresponding to 50% growth inhibition, read-out: cytotoxicity (GI50) ovarian OVCAR-3. On the procedure: as §1
The subject of data set [6] is UACC-62. The data set is described as follows: NCI screen antiproliferative activity, melanoma UACC-62. It is filed as cell-based. Conditions: Homo sapiens, concentration corresponding to 50% growth inhibition, read-out: cytotoxicity (GI50) melanoma UACC-62. As for the experimental part: as §1
In data set [7] the test system is HOP-62. The data set is described as follows: NCI screen antiproliferative activity, lung HOP-62. It is filed as cell-based. Conditions: Homo sapiens, concentration corresponding to 50% growth inhibition, read-out: cytotoxicity (GI50) lung HOP-62. On the procedure:
as §1

The test system of data set [8] is DU-145. Put plainly: NCI screen antiproliferative activity, prostate DU-145. Conditions: Homo sapiens, concentration corresponding to 50% growth inhibition, read-out: cytotoxicity (GI50) prostate DU-145. It is filed as cell-based. On the procedure:
as §1

For data set [9], the system named is SF-539. Put plainly: NCI screen antiproliferative activity, CNS SF-539. It is filed as cell-based. Conditions: Homo sapiens, concentration corresponding to 50% growth inhibition, read-out: cytotoxicity (GI50) CNS SF-539. As for the experimental part: as §1
Data set [10] deals with HCT-116. Put plainly: NCI screen antiproliferative activity, colon HCT-116. It is filed as cell-based. Conditions: Homo sapiens, concentration corresponding to 50% growth inhibition, read-out: cytotoxicity (GI50) colon HCT-116. On the procedure: as §1

Turning to `COc1cc2c3c(n(C)c(=O)c2cc1OC)-c1cc2c(cc1C3=O)OCO2` [compound 2, reference compound], the GI50 in data set [1] was 96 µM; in data set [3] (average GI50 of all approximately 55 cell lines, values outside 10^-8 to 10^-4 molar taken as the limits), 20.0 µM and 20 µM. Further, in data set [2], the “Top 1 Cleavage” value was “++”.
By melting point is commonly meant the temperature, or range, at which the solid turns liquid. `COc1cc2c3c(n(C)c(=O)c2cc1OC)-c1cc2c(cc1C3=CCCCCCBr)OCO2` [compound 21, 11-(6′-Bromohexylidene)-5,6-dihydro-2,3-dimethoxy-6-methyl-8,9-methylenedioxy-5-oxo-11H-indeno[1,2-c]isoquinoline] registered a melting point of 182 to 185 °C. Besides, in [2], the “top1 inhibitory activity compared with other compounds” value is “higher inhibitory activity against top1 than the four-carbon alkenyl halides 19 and 24”; the “Top 1 Cleavage” value was “+”. The GI50 in data set [3] (Homo sapiens) came out at 7.8 µM. Also, the “cytotoxicity compared with other compounds” value in data set [3] is “slightly more cytotoxic than compounds 18-20”.
As to `COc1cc2c3c(n(C)c(=O)c2cc1OC)-c1cc2c(cc1C3=CCCCCl)OCO2` [compound 18, 11-(4′-Chlorobutylidene)-5,6-dihydro-2,3-dimethoxy-6-methyl-8,9-methylenedioxy-5-oxo-11H-indeno[1,2-c]isoquinoline], the melting point fell in the range of 196 to 201 °C. Further, in data set [1] (Homo sapiens), the GI50 is > 100 µM. For the same compound, the “Top 1 Cleavage” value in data set [2] is listed as “+”. In addition, the GI50 in [3] (Homo sapiens) was 33.1 µM. Also, the GI50 in [4] is > 100 µM.
For `COc1cc2c3c(n(C)c(=O)c2cc1OC)-c1cc2c(cc1C3=CCCCCBr)OCO2` [compound 20, 11-(5′-Bromopentylidene)-5,6-dihydro-2,3-dimethoxy-6-methyl-8,9-methylenedioxy-5-oxo-11H-indeno[1,2-c]isoquinoline], the melting point fell in the range of 196 to 197 °C. The GI50 in data set [5] was > 100 µM. For the same compound, the GI50 in data set [1] (Homo sapiens) was > 100 µM. Further, in data set [2], the “top1 inhibitory activity compared with other compounds” value is “higher inhibitory activity against top1 than the four-carbon alkenyl halides 19 and 24”. The GI50 in data set [3] (Homo sapiens) is 33.1 µM. Moreover, in [6], the GI50 was > 100 µM. The GI50 in [4] was > 100 µM.
The compound `COc1cc2c3c(n(C)c(=O)c2cc1OC)-c1cc2c(cc1C3=CCCCBr)OCO2` [compound 19, 11-(4′-Bromobutylidene)-5,6-dihydro-2,3-dimethoxy-6-methyl-8,9-methylenedioxy-5-oxo-11H-indeno[1,2-c]isoquinoline] had a melting point of 197 to 199 °C. The GI50 in data set [5] was found to be 58.1 µM. Besides, the GI50 in data set [1] (Homo sapiens) was > 100 µM. In addition, the GI50 in [7] was determined as 19.4 µM. Also, in data set [8], the GI50 came to 67.8 µM. Besides, the “Top 1 Cleavage” value in data set [2] turned out to be 0. Also, the GI50 in data set [9] came out at 30 µM. Moreover, in data set [3] (Homo sapiens), the GI50 amounted to 27.8 µM. Moreover, the GI50 in data set [6] was found to be 11.4 µM. Moreover, the GI50 in [10] worked out at 37.8 µM. For the same compound, in [4], the GI50 was > 100 µM.
Regarding `COc1cc2cc3n(c(=O)c2cc1OC)Cc1cc2ccccc2nc1-3` [compound 8, 8,9-Dimethoxy-12H-5,11a-diaza-dibenzo[b,h]fluoren-11-one], the GI50 was > 100 µM in data set [5]; > 100 µM in data set [1] (Homo sapiens); > 100 µM in [7]; > 100 µM in data set [8]; > 100 µM in [9]; 91.2 µM in [3] (Homo sapiens). For the same compound, the GI50 in [6] was > 100 µM; in [10] it was 57.3 µM; in [4], > 100 µM. Further, the “Top 1 Cleavage” value in [2] was “+”. Further, the “cytotoxicity compared with other compounds” value in data set [3] was “generally less cytotoxic than compound 2”.
Turning to `COc1cc2c3c(n(C)c(=O)c2cc1OC)-c1cc2c(cc1C3=CCCCI)OCO2` [compound 24, 11-(4′-Iodobutylidene)-5,6-dihydro-2,3-dimethoxy-6-methyl-8,9-methylenedioxy-5-oxo-11H-indeno[1,2-c]isoquinoline], the melting point lay within 173 to 174.5 °C. Further, the GI50 in data set [5] was determined as 22.8 µM. Moreover, the GI50 in data set [1] (Homo sapiens) came to 5.2 µM. Besides, the GI50 in [7] was 27.6 µM. In data set [8], the GI50 came to 28.7 µM. In addition, the “Top 1 Cleavage” value in data set [2] stood at 0. In addition, in data set [9], the GI50 was determined as 4.3 µM. Also, in data set [3] (Homo sapiens), the GI50 was 16.8 µM. For the same compound, the “cytotoxicity compared with other compounds” value in data set [3] is given as “slightly more cytotoxic than compounds 18-20”. In [6], the GI50 stood at 3.5 µM. In [10], the GI50 is 0.56 µM. In addition, the GI50 in data set [4] is 8.8 µM.
Regarding `COc1cc2c3c(n(C)c(=O)c2cc1OC)-c1cc2c(cc1C3=CCCN)OCO2` [compound 26, 11-(3′-Aminopropylidene)-5,6-dihydro-2,3-dimethoxy-6-methyl-8,9-methylenedioxy-5-oxo-11H-indeno[1,2-c]isoquinoline], the melting point is > 180 °C (dec.). In data set [5], the GI50 came to 0.56 µM. Further, the GI50 in [1] (Homo sapiens) is 1.8 µM. In data set [7], the GI50 worked out at 0.071 µM. The GI50 in data set [8] stood at 0.37 µM. In addition, in data set [2], the “top1 inhibitory activity compared with other compounds” value is “more potent as a top1 poison than compound 2” and the “Top 1 Cleavage” value is “+++”. In data set [9], the GI50 came out at 0.42 µM. In [3] (Homo sapiens), the GI50 came to 0.34 µM. The GI50 in data set [6] was 0.2 µM. The GI50 in [10] was found to be 0.028 µM. In [4], the GI50 stood at 0.58 µM.
Consider `O=c1c2ccccc2cc2n1Cc1cc3ccccc3nc1-2` [compound 13, 12H-5,11a-Diaza-dibenzo[b,h]fluoren-11-one], for which the GI50 in [5] was 39.8 µM; in [1] (Homo sapiens) it was 41.8 µM; in [7], 68.2 µM; in data set [8] it was > 100 µM; in [9], 66.7 µM; in data set [3] (Homo sapiens), 58.9 µM. For the same compound, the GI50 was 97.2 µM in data set [6], 32.7 µM in [10] and > 100 µM in data set [4]. The “pattern of top1-mediated DNA cleavage sites” value in [2] is recorded as “better resembled that of compound 2 than that of camptothecin”. Moreover, the “Top 1 Cleavage” value in [2] is on record as “++”. Besides, in data set [3], the “cytotoxicity compared with other compounds” value is “generally less cytotoxic than compound 2”.
